Data published in PubChem BioAssay AID1918991 (Molecular Pharmacology Branch, DTP, NCI, 2023).

System: 186277-243-T-J2-PDC complex spheroid growth
Assay: Anticancer human tumor 186277-243-T-J2-PDC patient-derived colon adenocarcinoma cell line growth inhibition [AhR]
Details: for IC50: curve of first compound; for viability, T/C: stronger effect = lower value
Source text: Multicellular complex tumor spheroid response to aryl hydrocarbon receptor antagonists in combination with a variety of drugs and investigational agents in selected tumor cell lines
The current study was undertaken to assess response to aryl hydrocarbon receptor antagonists in combination with standard-of-care drugs and investigational agents in solid tumor complex spheroid models. Complex spheroids include a stromal component modeled by human endothelial cells (HUVEC) and fibroblasts modeled by human mesenchymal stem cells (MSCs). The concentration ranges selected for each drug and investigational agent were based upon clinically achievable concentrations if the clinical Cmax of the agent was known.
Compounds. The drugs and investigational agents: BAY 2416964 (NSC825713), GNF351 (NSC835774), CH-223191 (NSC835775), CPI-455 (NSC825282), aza-TdCyd (NSC777586), decitabine (NSC127716), belinostat (NSC758774), entinostat (NSC756642), pevonedistat (NSC761192), tazemetostat (NSC777109), talazoparib (NSC765396), olaparib (NSC753686), selinexor (NSC780203), nedisertib (M3814, NSC802822), bortezomib (NSC756655), venetoclax (NSC766270), doxorubicin (NSC123127), elimusertib (BAY189344, NSC800525), ceralasertib (AZD6738, NSC777638), TAK-243 (NSC785004), alisertib (NSC759677), etoposide (NSC141540), topotecan (NSC609699), eribulin (NSC707389), gemcitabine (NSC613327), carboplatin (NSC241240), cisplatin (NSC119875), and SN-38 (NSC673596) were obtained from the National Cancer Institute (NCI) Developmental Therapeutics Program Chemical Repository (32). The FDA-approved anticancer drug set is available from the Developmental Therapeutics Program at https://dtp.cancer.gov/organization/dscb/obtaining/available plates.htm. […] The stock solutions were prepared in dimethyl sulfoxide (DMSO, Sigma-Aldrich, St. Louis, MO, cat. D2650), except for the platinum compounds which were prepared in saline (Quality Biological, Gaithersburg, MD, cat. 114-055-101), at 800-fold the tested concentration and stored at -70 degrees C prior to their use. All drugs and investigational agents were tested over a range starting from a high concentration at or near the clinical Cmax and decreasing in half-log increments. If the clinical Cmax for an agent had not been determined, the highest concentration tested was 10 microM (Table 1).
Cell Culture. All cells were maintained in an incubator at 37 degrees C and 5% CO2 with 95% humidity. The PDC lines were cultured according to standard operating procedures established by the NCI PDMR (https://pdmr.cancer.gov). Briefly, all PDCs were thawed and cultured in Matrigel-coated flasks prepared with a working solution of 1X Ham's F-12 nutrient mix, without supplementation (Invitrogen, Waltham, MA, cat. 11765054), 100 U/mL penicillin-streptomycin (Invitrogen, cat. 15140122), and 2.5% Matrigel (Corning Inc., Corning, NY, cat. 354248) for the first three passages. All PDCs were cultured in complete DMEM/F-12 media containing advanced DMEM/F-12 (Invitrogen, cat. 12634028), 4.9% defined fetal bovine serum, heat inactivated (HyClone Laboratories Inc., Logan, UT, cat. SH30070.03HI), 389 ng/mL hydrocortisone (Sigma-Aldrich, cat. H4001), 9.7 ng/mL human EGF recombinant protein (Invitrogen, cat. PHG0313), 23.4 microg/mL adenine (Sigma-Aldrich, cat. A2786), 97.3 U/mL penicillin-streptomycin (Invitrogen, cat. 15140122), 1.9 mM L-glutamine (Invitrogen, cat. 25030081), and 9.7 microM Y-27632 dihydrochloride (Tocris Bioscience, Bristol, United Kingdom, cat. 1254). The PDCs were cultured in complete DMEM/F12 media without 10 microM Y-27632 dihydrochloride for at least two passages prior to the screen. The established cell lines NCI-H1341 and […] were cultured in DMEM/F-12, HEPES (Invitrogen, cat. 11330032), 5% defined fetal bovine serum (HyClone Laboratories Inc., cat. SH30070.03), ITS premix universal culture supplement [insulin (5 microg/mL), transferrin (5 microg/mL), and selenious acid (5 ng/mL)] […]
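Note: spheroids exposed to compounds for seven days before the viability read.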
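Throughout, for viability, T/C: luminescent signal used as a stand-in for viable cell amount; 100% = DMSO vehicle control wells.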

Molecule COc1cc(C2c3cc4c(cc3C(OC3OC5COC(C)OC5C(O)C3O)C3COC(=O)C23)OCO4)cc(OC)c1O (stereo not given) + CC(CO)NC(=O)c1cc(-c2ccc(Cl)cc2)nn(-c2cnn(C)c2)c1=O has an IC50 (second compound 0.1 µM) of 279 nM, an IC50 (second compound 0.316 µM) of 281 nM and an IC50 (second compound 1 µM) of 260 nM. It also gave an IC50 (second compound 3.16 µM) of 197 nM, an IC50 (second compound 10 µM) of 81.6 nM and a viability, T/C (second compound 0.1 µM, first compound 0.0316 µM) of 102%. The viability, T/C (second compound 0.1 µM, first compound 0.1 µM) was 83.9%, the viability, T/C (second compound 0.1 µM, first compound 0.316 µM) was 45.4% and the viability, T/C (second compound 0.1 µM, first compound 1 µM) was 20.3%. The viability, T/C (second compound 0.1 µM, first compound 3.16 µM) was 15.5%, the viability, T/C (second compound 0.1 µM, first compound 10 µM) was 8.93% and the viability, T/C (second compound 0.316 µM, first compound 0.0316 µM) was 92.8%. It also gave a viability, T/C (second compound 0.316 µM, first compound 0.1 µM) of 90.6%, a viability, T/C (second compound 0.316 µM, first compound 0.316 µM) of 45% and a viability, T/C (second compound 0.316 µM, first compound 1 µM) of 17.8%. For the same molecule, the viability, T/C (second compound 0.316 µM, first compound 3.16 µM) was 17.6%, the viability, T/C (second compound 0.316 µM, first compound 10 µM) was 8.41% and the viability, T/C (second compound 1 µM, first compound 0.0316 µM) was 89.2%. The viability, T/C (second compound 1 µM, first compound 0.1 µM) was 80.2%, the viability, T/C (second compound 1 µM, first compound 0.316 µM) was 42.6% and the viability, T/C (second compound 1 µM, first compound 1 µM) was 20.7%. The viability, T/C (second compound 1 µM, first compound 3.16 µM) was 16.4%, the viability, T/C (second compound 1 µM, first compound 10 µM) was 8.47% and the viability, T/C (second compound 3.16 µM, first compound 0.0316 µM) was 84.5%. For the same molecule, the viability, T/C (second compound 3.16 µM, first compound 0.1 µM) was 71.6%, the viability, T/C (second compound 3.16 µM, first compound 0.316 µM) was 33.7% and the viability, T/C (second compound 3.16 µM, first compound 1 µM) was 20.2%. The viability, T/C (second compound 3.16 µM, first compound 3.16 µM) was 14.5%, the viability, T/C (second compound 3.16 µM, first compound 10 µM) was 7.04% and the viability, T/C (second compound 10 µM, first compound 0.0316 µM) was 68.3%. For the same molecule, the viability, T/C (second compound 10 µM, first compound 0.1 µM) was 47.4%, the viability, T/C (second compound 10 µM, first compound 0.316 µM) was 25.2% and the viability, T/C (second compound 10 µM, first compound 1 µM) was 19.2%. The viability, T/C (second compound 10 µM, first compound 3.16 µM) was 10.4% and the viability, T/C (second compound 10 µM, first compound 10 µM) was 6.47%.
